Test: Human HepG2 cell viability assay in 384 well format
Assay type: toxicity, cell-based
Design: dose 125 nL, time 70.5 hour; cytotoxicity at 70.5 h: concentration not given beside the values
Details: HepG2 cells, read-out: Inhibition

SMILES | cytotoxicity at 70.5 h
CCc1ccc(NC(=O)C(C)N2CCN(Cc3ncc[nH]3)CC2)cc1 (stereo not given) | -2.82%
COc1cc(CNc2cnn(CCN3CCOCC3)c2)cc(OC)c1 | -20.4%
CCS(=O)(=O)CCN(C)C(=O)NC(C)c1ccc(C)s1 (stereo not given) | -5.27%
OC(COCc1ccccc1F)CN1CCC(Cn2cccn2)CC1 (stereo not given) | -0.0861%
CCN(C(=O)CCCOC)C(c1ccc(Cl)cc1)c1ccccn1 (stereo not given) | 31.1%
Cc1cccc2c1NC(c1cnc(C3CCC3)s1)NC2=O (stereo not given) | -18.5%
O=C(COCc1ccccc1Cl)Nc1ccnn1CC1CCOC1 (stereo not given) | -18.3%
COc1ccc(C2CCN(C(=O)c3ncccc3OC(C)C)C2)cc1 (stereo not given) | 11.5%
CCN(Cc1cnn(C)c1)C(=O)c1cc2ccccc2c(=O)[nH]1 | -7.09%
NC(=O)CC1CCCCN1C(=O)Cc1cccc(Br)c1 (stereo not given) | -4.57%
CS(=O)(=O)NC1CCN(C(=O)c2[nH]c3ccc(Cl)cc3c2Cl)CC1 | 31.7%
Cc1cccc(C2(CNC(=O)C(C)S(C)(=O)=O)CCCC2)c1 (stereo not given) | -3.73%
Cc1cccc(C2(CNC(=O)C(C)NC(N)=O)CCCC2)c1 (stereo not given) | 4.08%
CC(C(=O)N(C)C)S(=O)(=O)c1cc2c(cc1Cl)OCCO2 (stereo not given) | -6.12%
N#Cc1cc(S(N)(=O)=O)ccc1NC1CCc2cc(Cl)ccc21 (stereo not given) | -11.2%
N#Cc1cc(S(N)(=O)=O)ccc1NC1CCc2ccc(F)cc21 (stereo not given) | 7.54%
Cn1cc(CNc2ccc(CCO)cc2)c(-c2ccncc2)n1 | 21.4%
Cc1ccc(OCC(O)Cn2ncc3cnn(C)c(=O)c32)cc1 (stereo not given) | -6.88%
Cc1ccc(N2CCCC(N3CCN(CC(F)F)CC3)C2=O)cc1 (stereo not given) | -6.94%
CSCCN(C)Cc1ccc(F)cc1C#N | -4.74%
Cc1cnc(NCc2ccc(S(=O)(=O)N(C)C(C)C)cc2)nc1C | -11.1%
CCCc1nccn1CCn1cnc2ccsc2c1=O | 1.1%

SMILES | cytotoxicity at 70.5 h
CC(C)c1nccn1CCn1cnc2ccsc2c1=O | -8.28%
CN(Cc1ccc(F)cc1C#N)CC(F)(F)F | 17.4%
Cc1cc(C)n(C2CN(CC(O)Cn3cccn3)C2)n1 (stereo not given) | 7.73%
Cc1ccc(C)c(CS(=O)(=O)CC(=O)N(C)Cc2cccc(F)c2)c1 | 21.1%
Cc1ccccc1CS(=O)(=O)CC(=O)N(C)Cc1ccccc1 | -9.59%
Cc1noc(C)c1CNC(=O)C1(NS(C)(=O)=O)CCCCC1 | -5.85%
Cc1noc(C)c1CN(C)C(=O)C1(NS(C)(=O)=O)CCCCC1 | -0.856%
COCc1nc(C(=O)N2CCN(Cc3cc(C)on3)CC2)cs1 | -5.75%
CC(C(=O)NC1CC1)S(=O)(=O)Cc1csc(-c2cccs2)n1 (stereo not given) | 11%
COCCN1CCC(NCc2c(C)nn(C)c2N(C)C)CC1 | -4.85%
Cc1ccccc1CS(=O)(=O)CC(=O)N(C)Cc1ccccc1F | -1.24%
Cc1noc(C)c1CN(C)C(=O)C1(N)CCCCC1 | -2.97%
O=C(C1CCCN1S(=O)(=O)C1CCCC1)N1CCSCC1 (stereo not given) | -5.09%
Cc1nnc(CN2CCCC2c2cccc(Br)c2)o1 (stereo not given) | -4.5%
CC(C)N(C)S(=O)(=O)N1CCCC1C(=O)N1CCSCC1 (stereo not given) | -0.523%
CCN1CCN(c2ccc(C(=O)NCCOC)cc2F)CC1 | 25.2%
Cc1cnn(C2CN(CC(O)Cn3cccn3)C2)c1 (stereo not given) | 7.89%
NS(=O)(=O)c1cnn(-c2ccc(NC(=O)CC3CCCC3)cn2)c1 | -5.14%
NS(=O)(=O)c1cnn(-c2ccc(NC(=O)C3CCCCC3)cn2)c1 | -0.503%
Cc1ccc(C(=O)NS(=O)(=O)Cc2ccon2)c(C)c1 | -4.2%
CC(c1cc(F)ccc1F)N1CCN(C(=O)c2ccc(=O)[nH]c2)CC1 (stereo not given) | -1.22%
COc1cc(C)c(CNC(C)c2csc(C3CC3)n2)cc1OC (stereo not given) | -4%

SMILES | cytotoxicity at 70.5 h
CCOc1cc(CNC(C)c2sccc2C)ccn1 (stereo not given) | -0.185%
CCOc1cc(CNC(C)c2ccc(F)cc2)ccn1 (stereo not given) | 26.8%
CCN(C(=O)C1Cc2cc(Cl)ccc2O1)C1CC1 (stereo not given) | -2.35%
CS(=O)(=O)N1CCN(CC(=O)Nc2cccc(Cl)c2)CC1 | 5.96%
CC(C)(NC(=O)c1cnc(-c2ccccc2F)s1)C(N)=O | -10.3%
CN(Cc1cccc(F)c1)S(=O)(=O)N1CCOCC1 | -3.2%
O=C(NCc1cc[nH]n1)NC1CCCN(c2ncccn2)C1 (stereo not given) | -6.39%
O=C(NCc1ccoc1)NC1CCCN(c2ncccn2)C1 (stereo not given) | -4.3%
O=C(NCc1ccc(F)cc1)N1CCC(C2OCCO2)CC1 | -10%
COCCn1ccc2cc(NC(C)=O)ccc21 | -5.43%
CN(Cc1nccn1CC(F)(F)F)C(=O)c1ccc(F)c(F)c1 | -1.82%
COc1cccc2c1OCC(NC(=O)NCc1cccs1)C2 (stereo not given) | -0.177%
CCc1nccn1C1CCCN(C(=O)c2cnc3ccccc3n2)C1 (stereo not given) | -2.77%
CCc1nccn1C1CCCN(C(=O)c2ccc3[nH]cnc3c2)C1 (stereo not given) | -5.72%
CC(O)CN1CCN(C(=O)c2cc3ccccc3[nH]c2=O)CC1 (stereo not given) | -11%
CC(NC(=O)NCC1(O)CCC1)c1ccc(OCC2CC2)c(F)c1 (stereo not given) | -12%
Cc1ccc(CCC(=O)N(C)CCN2CCOCC2)c(C)c1 | -0.456%
CCc1csc(C2CCCN(C(=O)c3cnn(CC)c3)C2)n1 (stereo not given) | 6.03%
Cc1cccc(NC(=O)c2sccc2C)n1 | 36.7%
O=C(C1CC1)N1CCC2(CC1)OCCO2 | -6.55%
COCCNC(=O)c1ccc(C)c(-n2cccc2)c1 | -2.8%
CS(=O)(=O)NCCCNC(=O)c1cccc(-n2cccc2)c1 | -1.21%

SMILES | cytotoxicity at 70.5 h
CC(=O)N1CCN(CCNS(=O)(=O)c2ccc(C)c(F)c2)CC1 | 28.3%
O=C(CN1CCCC(O)C1)NC(=O)NCc1cccs1 (stereo not given) | -8.04%
O=C(CCNC(=O)c1ccccc1)Nc1ccncc1 | -18%
Cn1cc(NC(=O)Cn2c(CS(C)(=O)=O)nc3ccccc32)cn1 | -6.35%
O=C(NCCCNC(=O)c1cccc(O)c1)NCc1ccccc1F | -9.83%
Cc1nc(C2(NCC(=O)NC(=O)NCc3cccs3)CCCCC2)no1 | -12.5%
Cc1ccc(C(=O)N(C)Cc2cc(Br)cs2)c(=O)[nH]1 | -11.5%
Cc1ccc(C(=O)N(C)Cc2cscn2)c(=O)[nH]1 | -12.9%
CCc1ccc(C(=O)N2CCC(c3nncn3CC)CC2)cc1 | 33.4%
Cc1nn(C)c2sc(C(=O)N3CCCC(n4ccnc4C)C3)cc12 (stereo not given) | -7.74%
Cc1ccc(CC2CCCN2CC(=O)NCc2cccnc2)cc1 (stereo not given) | -15.4%
Cn1cc(CC2CCN(C(=O)NCCc3cccc(O)c3)C2)cn1 (stereo not given) | -12.6%
CCCN1CCN(C(=O)c2scnc2C)CC1 | -3.56%
Cn1cc(CC2CCN(C(=O)NCc3cn4ccsc4n3)C2)cn1 (stereo not given) | 23.7%
O=C(C1CCC1)N1CCC2(CC1)OCCO2 | -7.76%
Cc1ccccc1C1(CNC(=O)NCCc2nnc3n2CCC3)CC1 | -17.5%
Cc1nn(C)c(C)c1C(=O)N1CCOCC1CC(=O)c1ccco1 (stereo not given) | -18.7%
COCCOCC(=O)Nc1ccc(C)cc1F | -7.66%
Cc1nn(C)c(Cl)c1CNCc1cccnc1N1CCOCC1 | 0.768%

Source: ChEMBL document CHEMBL3507680, “University of Dundee, Gates Library screen for HepG2 cell viability”
